Laboratory results as given in patent publication US11731943B2, “Therapeutic compounds, compositions and methods of use thereof” (priority 2016, dated 2023).

Assays:
[1] = biological target: isolated recombinant JAK1 kinase domain (Homo sapiens (Human), UniProt P23458); test: JAK1 enzyme assay (Caliper LabChip, Ki); type: biochemical; conditions: read-out: JAK1 Ki
Summary of the method: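 Recombinant human JAK1 kinase domain phosphorylating an N-terminally 5-carboxyfluorescein-labelled JAK3-derived peptide, 30 min at 22 °C, stopped with EDTA (50 mM final). Phosphorylated fraction of total peptide read by Caliper LabChip mobility shift; Ki from Morrison tight-binding fit corrected for ATP competition (Ki=Ki,app/(1+[ATP]/Km,app)).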

[2] = test system: JAK1-dependent STAT6 phosphorylation downstream of IL-13 stimulation in BEAS-2B human bronchial epithelial cells; test: JAK1 pathway assay in BEAS-2B cells (IL-13-pSTAT6, MSD); type: cell-based; conditions: Homo sapiens, BEAS-2B, BEAS-2B cells, IL-13 stimulation; read-out: IL-13 p-STAT6 BEAS-2B IC50
[3] = biological target: isolated recombinant JAK2 kinase domain (Homo sapiens (Human), UniProt O60674); test: JAK2 enzyme assay (Caliper LabChip, Ki); type: biochemical
Summary of the method: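 Recombinant human JAK1 or JAK2 kinase domain phosphorylating a 5-carboxyfluorescein-labelled JAK3-derived peptide; 30 min at 22 °C, stopped with EDTA (50 mM final). Phosphorylated product measured as a fraction of total peptide by Caliper LabChip mobility shift.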

Chain of isolated recombinant JAK1 kinase domain (P23458 875-1153): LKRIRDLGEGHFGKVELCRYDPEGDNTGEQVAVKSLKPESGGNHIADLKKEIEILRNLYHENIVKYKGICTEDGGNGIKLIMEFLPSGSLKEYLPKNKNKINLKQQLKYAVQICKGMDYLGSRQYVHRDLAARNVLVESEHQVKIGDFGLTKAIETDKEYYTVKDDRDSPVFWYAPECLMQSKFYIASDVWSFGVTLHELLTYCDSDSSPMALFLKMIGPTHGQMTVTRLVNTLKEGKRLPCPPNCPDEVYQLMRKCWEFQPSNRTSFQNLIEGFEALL
Chain of isolated recombinant JAK2 kinase domain (O60674 849-1124): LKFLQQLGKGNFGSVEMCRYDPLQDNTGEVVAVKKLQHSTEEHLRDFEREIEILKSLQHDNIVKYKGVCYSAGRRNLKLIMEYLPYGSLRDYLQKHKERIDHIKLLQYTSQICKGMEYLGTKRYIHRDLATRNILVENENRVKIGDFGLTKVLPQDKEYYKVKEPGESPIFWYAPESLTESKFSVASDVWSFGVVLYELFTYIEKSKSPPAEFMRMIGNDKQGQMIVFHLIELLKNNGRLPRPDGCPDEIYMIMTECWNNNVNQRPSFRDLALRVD

Question: Which Ki [1] does the source give for `COC(=O)Nc1nn(C2(CC#N)CCN(Cc3ccc(C4=CCCC4)c(O)c3)CC2F)cc1C(N)=O` (stereo not drawn) [Example 269, methyl N-[4-carbamoyl-1-[4-(cyanomethyl)-1-[[4-(cyclopenten-1-yl)-3-hydroxy-phenyl]methyl]-3-fluoro-4-piperidyl]pyrazol-3-yl]carbamate] here?
Answer: 0.6 nM

Question: What about the IC50 [2] of the same compound?
Answer: 35 nM

Question: And the Ki [3]?
Answer: 0.55 nM

Question: For `C#Cc1ccc(CN2CCC(CC#N)(n3cc(C(N)=O)c(NC(=O)OC)n3)C(F)C2)cc1` (stereo not drawn) [Example 270, methyl N-[4-carbamoyl-1-[4-(cyanomethyl)-1-[(4-ethynylphenyl)methyl]-3-fluoro-4-piperidyl]pyrazol-3-yl]carbamate], which Ki [1] is on record?
Answer: 0.41 nM

Question: And the IC50 [2]?
Answer: 21 nM

Question: What about the Ki [3] of the same compound?
Answer: 0.9 nM

Question: Which Ki [1] does the source give for `N#CCC1(n2cc(C(N)=O)c(NC(=O)C3CC3)n2)CCN(Cc2ccc(C3CCCCC3)cc2)CC1F` (stereo not drawn) [Example 271, 1-[4-(cyanomethyl)-1-[(4-cyclohexylphenyl)methyl]-3-fluoro-4-piperidyl]-3-(cyclopropanecarbonylamino) pyrazole-4-carboxamide] here?
Answer: 2.6 nM

Question: And the IC50 [2]?
Answer: 83 nM

Question: What about the Ki [3] of the same compound?
Answer: 15 nM

Question: With `COC(=O)Nc1nn(C2(CC#N)CCN(Cc3ccc(C4=CCCC4)nc3F)CC2F)cc1C(N)=O` (stereo not drawn) [Example 272, methyl N-[4-carbamoyl-1-[4-(cyanomethyl)-1-[[6-(cyclopenten-1-yl)-2-fluoro-3-pyridyl]methyl]-3-fluoro-4-piperidyl]pyrazol-3-yl]carbamate] as the compound, how does the Ki [1] read?
Answer: 0.68 nM

Question: And the IC50 [2]?
Answer: 67 nM

Question: What about the Ki [3] of the same compound?
Answer: 1.6 nM

Question: Which Ki [1] does the source give for `COC(=O)Nc1nn(C2(CC#N)CCN(Cc3cc(O)ccc3Cl)CC2F)cc1C(N)=O` (stereo not drawn) [Example 273, methyl N-[4-carbamoyl-1-[1-[(2-chloro-5-hydroxy-phenyl)methyl]-4-(cyanomethyl)-3-fluoro-4-piperidyl]pyrazol-3-yl]carbamate] here?
Answer: 0.33 nM

Question: What about the IC50 [2] of the same compound?
Answer: 75 nM

Question: What about the Ki [3] of the same compound?
Answer: 0.31 nM

Question: For `C=C(C)c1cc(F)c(CN2CCC(CC#N)(n3cc(C(N)=O)c(NC(=O)OC)n3)C(F)C2)cc1O` (stereo not drawn) [Example 274, methyl N-[4-carbamoyl-1-[4-(cyanomethyl)-3-fluoro-1-[(2-fluoro-5-hydroxy-4-isopropenyl-phenyl)methyl]-4-piperidyl]pyrazol-3-yl]carbamate], which Ki [1] is on record?
Answer: 0.58 nM

Question: And the IC50 [2]?
Answer: 38 nM

Question: And the Ki [3]?
Answer: 0.61 nM

Question: How did the Ki [1] turn out when `N#CCC1(n2cc(C(N)=O)c(NC(=O)C3CC3)n2)CCC(Nc2ccc(C3=CCCC3)cc2)CC1` (stereo not drawn) [Example 275, 1-[1-(cyanomethyl)-4-[4-(cyclopenten-1-yl)anilino]cyclohexyl]-3-(cyclopropanecarbonylamino) pyrazole-4-carboxamide] was run?
Answer: 1.1 nM

Question: And the IC50 [2]?
Answer: 52 nM

Question: And the Ki [3]?
Answer: 8.1 nM

Question: Which results are given for `N#CCC1(n2cc(C(N)=O)c(NC(=O)C3CC3)n2)CCC(Nc2ccc(-c3ccco3)cc2)CC1` (stereo not drawn) [Example 276, 1-[1-(cyanomethyl)-4-[4-(2-furyl)anilino]cyclohexyl]-3-(cyclopropanecarbonylamino) pyrazole-4-carboxamide]?
Answer: Ki [1]: 0.25 nM; IC50 [2]: 9 nM; Ki [3]: 2.2 nM

Question: Which Ki [1] does the source give for `N#CCC1(n2cc(C(N)=O)c(NC(=O)C3CC3)n2)CCN(Cc2ccc(-n3nccn3)c(O)c2)CC1` [Example 277, 1-[4-(cyanomethyl)-1-[[3-hydroxy-4-(triazol-2-yl)phenyl]methyl]-4-piperidyl]-3-(cyclopropanecarbonylamino) pyrazole-4-carboxamide] here?
Answer: 0.74 nM

Question: And the IC50 [2]?
Answer: 40 nM

Question: And the Ki [3]?
Answer: 1.9 nM

Question: With `COC(=O)Nc1nn(C2(CC#N)CCN(Cc3ccc(-c4ncco4)cc3)CC2F)cc1C(N)=O` (stereo not drawn) [Example 278, methyl N-[4-carbamoyl-1-[4-(cyanomethyl)-3-fluoro-1-[(4-oxazol-2-ylphenyl)methyl]-4-piperidyl]pyrazol-3-yl]carbamate] as the compound, how does the Ki [1] read?
Answer: 1.1 nM

Question: And the IC50 [2]?
Answer: 45 nM

Question: What about the Ki [3] of the same compound?
Answer: 1.3 nM

Question: What does the source list for `C#Cc1ccc(NC2CCC(CC#N)(n3cc(C(N)=O)c(NC(=O)C4CC4)n3)CC2)cc1` (stereo not drawn) [Example 279, 1-[1-(cyanomethyl)-4-(4-ethynylanilino)cyclohexyl]-3-(cyclopropanecarbonylamino) pyrazole-4-carboxamide]?
Answer: Ki [1]: 1.2 nM; IC50 [2]: 92 nM; Ki [3]: 14 nM

Question: Which results are given for `C#Cc1ccc(CN2CCC(CC#N)(n3cc(C(N)=O)c(NC(=O)C4CC4)n3)C(F)C2)c(Cl)c1` (stereo not drawn) [Example 280, 1-[1-[(2-chloro-4-ethynyl-phenyl)methyl]-4-(cyanomethyl)-3-fluoro-4-piperidyl]-3-(cyclopropanecarbonylamino) pyrazole-4-carboxamide]?
Answer: Ki [1]: 0.3 nM; IC50 [2]: 16 nM; Ki [3]: 0.4 nM

Question: Which Ki [1] does the source give for `COC(=O)Nc1nn(C2(CC#N)CCN(Cc3ccc(C4CC4)cc3)CC2F)cc1C(N)=O` (stereo not drawn) [Example 281, methyl N-[4-carbamoyl-1-[4-(cyanomethyl)-1-[(4-cyclopropylphenyl)methyl]-3-fluoro-4-piperidyl]pyrazol-3-yl]carbamate] here?
Answer: 1.1 nM

Question: And the IC50 [2]?
Answer: 36 nM

Question: And the Ki [3]?
Answer: 2.2 nM

Question: For `N#CCC1(n2cc(C(N)=O)c(NC(=O)C3CC3)n2)CCC(Nc2ccccc2)CC1` (stereo not drawn) [Example 282, 1-[4-anilino-1-(cyanomethyl)cyclohexyl]-3-(cyclopropanecarbonylamino) pyrazole-4-carboxamide], which Ki [1] is on record?
Answer: 0.62 nM

Question: What about the IC50 [2] of the same compound?
Answer: 48 nM

Question: What about the Ki [3] of the same compound?
Answer: 9.6 nM

Question: Which Ki [1] does the source give for `COC(=O)Nc1nn(C2(CC#N)CCN(Cc3cc(C(F)F)ccc3F)CC2F)cc1C(N)=O` (stereo not drawn) [Example 283, methyl N-[4-carbamoyl-1-[4-(cyanomethyl)-1-[[5-(difluoromethyl)-2-fluoro-phenyl]methyl]-3-fluoro-4-piperidyl]pyrazol-3-yl]carbamate] here?
Answer: 1.4 nM

Question: What about the IC50 [2] of the same compound?
Answer: 77 nM

Question: What about the Ki [3] of the same compound?
Answer: 2.9 nM

Question: What does the source list for `C=Cc1ccc(CN2CCC(CC#N)(n3cc(C(N)=O)c(NC(=O)OC)n3)C(F)C2)cc1O` (stereo not drawn) [Example 284, methyl N-[4-carbamoyl-1-[4-(cyanomethyl)-3-fluoro-1-[(3-hydroxy-4-vinyl-phenyl)methyl]-4-piperidyl]pyrazol-3-yl]carbamate]?
Answer: Ki [1]: 0.3 nM; IC50 [2]: 48 nM; Ki [3]: 0.5 nM

Question: `C=Cc1cc(F)c(CN2CCC(CC#N)(n3cc(C(N)=O)c(NC(=O)OC)n3)C(F)C2)cc1O` (stereo not drawn) [Example 285, methyl N-[4-carbamoyl-1-[4-(cyanomethyl)-3-fluoro-1-[(2-fluoro-5-hydroxy-4-vinyl-phenyl)methyl]-4-piperidyl]pyrazol-3-yl]carbamate] was tested. Which Ki [1] did it give?
Answer: 0.19 nM

Question: And the IC50 [2]?
Answer: 22 nM

Question: What about the Ki [3] of the same compound?
Answer: 0.23 nM

Question: For `N#CCC1(n2cc(C(N)=O)c(NC(=O)C3CC3)n2)CCN(Cc2ccc(-n3nccn3)c(O)c2)CC1F` (stereo not drawn) [Example 286, 1-[4-(cyanomethyl)-3-fluoro-1-[[3-hydroxy-4-(triazol-2-yl)phenyl]methyl]-4-piperidyl]-3-(cyclopropanecarbonylamino) pyrazole-4-carboxamide], which Ki [1] is on record?
Answer: 0.43 nM

Question: And the IC50 [2]?
Answer: 52 nM

Question: What about the Ki [3] of the same compound?
Answer: 0.4 nM

Question: How did the Ki [1] turn out when `COC(=O)Nc1nn(C2(CC#N)CCN(Cc3ccc(-n4nccn4)c(O)c3)CC2F)cc1C(N)=O` (stereo not drawn) [Example 287, methyl N-[4-carbamoyl-1-[4-(cyanomethyl)-3-fluoro-1-[[3-hydroxy-4-(triazol-2-yl)phenyl]methyl]-4-piperidyl]pyrazol-3-yl]carbamate] was run?
Answer: 0.35 nM

Question: And the IC50 [2]?
Answer: 32 nM

Question: And the Ki [3]?
Answer: 0.43 nM

Question: `N#CCC1(n2cc(C(N)=O)c(NC(=O)C3CC3)n2)CCC(Nc2ccc(-n3nccn3)cc2)CC1` (stereo not drawn) [Example 288, 1-[1-(cyanomethyl)-4-[4-(triazol-2-yl)anilino]cyclohexyl]-3-(cyclopropanecarbonylamino) pyrazole-4-carboxamide] was tested. Which Ki [1] did it give?
Answer: 0.28 nM

Question: And the IC50 [2]?
Answer: 41 nM

Question: And the Ki [3]?
Answer: 4.4 nM

Question: Which results are given for `C#Cc1ccc(CN2CCC(CC#N)(n3cc(C(N)=O)c(NC(=O)OC)n3)C(F)C2)c(Cl)c1` (stereo not drawn) [Example 289, methyl N-[4-carbamoyl-1-[1-[(2-chloro-4-ethynyl-phenyl)methyl]-4-(cyanomethyl)-3-fluoro-4-piperidyl]pyrazol-3-yl]carbamate]?
Answer: Ki [1]: 0.26 nM; IC50 [2]: 15 nM; Ki [3]: 0.55 nM

Question: With `N#CCC1(n2cc(C(N)=O)c(NC(=O)C3CC3)n2)CCC(Nc2ccccc2Cl)CC1` (stereo not drawn) [Example 290, 1-[4-(2-chloroanilino)-1-(cyanomethyl)cyclohexyl]-3-(cyclopropanecarbonylamino) pyrazole-4-carboxamide] as the compound, how does the Ki [1] read?
Answer: 1.1 nM

Question: And the IC50 [2]?
Answer: 82 nM

Question: What about the Ki [3] of the same compound?
Answer: 13 nM

Question: How did the Ki [1] turn out when `CC1(Oc2ccc(OC(F)F)cc2)CN(C2CCC(CC#N)(n3cc(C(N)=O)c(NC(=O)C4CC4)n3)CC2)C1` (stereo not drawn) [Example 291, 1-[1-(cyanomethyl)-4-[3-[4-(difluoromethoxy)phenoxy]-3-methyl-azetidin-1-yl]cyclohexyl]-3-(cyclopropanecarbonylamino) pyrazole-4-carboxamide] was run?
Answer: 0.86 nM

Question: And the IC50 [2]?
Answer: 54 nM

Question: And the Ki [3]?
Answer: 2.1 nM

Question: Which Ki [1] does the source give for `COC(=O)Nc1nn(C2(CC#N)CCN(Cc3cc(O)c(C)cc3F)CC2F)cc1C(N)=O` (stereo not drawn) [Example 292, methyl N-[4-carbamoyl-1-[4-(cyanomethyl)-3-fluoro-1-[(2-fluoro-5-hydroxy-4-methyl-phenyl)methyl]-4-piperidyl]pyrazol-3-yl]carbamate] here?
Answer: 0.55 nM

Question: And the IC50 [2]?
Answer: 49 nM

Question: And the Ki [3]?
Answer: 0.7 nM

Question: Which Ki [1] does the source give for `COC(=O)Nc1nn(C2(CC#N)CCN(Cc3cc(O)cc(F)c3)CC2F)cc1C(N)=O` (stereo not drawn) [Example 293, methyl N-[4-carbamoyl-1-[4-(cyanomethyl)-3-fluoro-1-[(3-fluoro-5-hydroxy-phenyl)methyl]-4-piperidyl]pyrazol-3-yl]carbamate] here?
Answer: 0.3 nM

Question: What about the IC50 [2] of the same compound?
Answer: 55 nM

Question: What about the Ki [3] of the same compound?
Answer: 0.34 nM
